According to ChEMBL document CHEMBL1221216, “Chemical probes for histone-modifying enzymes” (Nat Chem Biol, 2008):
pEC50, pIC50: −log10 of the molar value.

Assays:
[1] = biological target: T1, NAD-dependent protein deacetylase sirtuin-2 (Homo sapiens, UniProt Q8IXJ6); assay: Activation of human SirT2 protein fluorescence polarization assay
T1 sequence (Q8IXJ6 whole entry): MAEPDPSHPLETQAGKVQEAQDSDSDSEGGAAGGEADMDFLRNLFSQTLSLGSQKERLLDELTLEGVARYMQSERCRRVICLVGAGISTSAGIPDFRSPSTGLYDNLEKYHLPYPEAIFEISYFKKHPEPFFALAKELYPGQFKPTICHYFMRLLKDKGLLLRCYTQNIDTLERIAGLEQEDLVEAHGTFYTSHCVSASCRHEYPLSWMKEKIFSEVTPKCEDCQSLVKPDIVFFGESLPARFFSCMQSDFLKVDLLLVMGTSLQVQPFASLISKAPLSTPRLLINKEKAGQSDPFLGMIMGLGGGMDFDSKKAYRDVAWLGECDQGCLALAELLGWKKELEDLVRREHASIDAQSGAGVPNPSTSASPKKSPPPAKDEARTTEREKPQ

[2] = Inhibition of histone methyltransferase SU(VAR)3-9

`O=C(Nc1ccccc1-c1cn2c(CN3CCNCC3)csc2n1)c1cnc2ccccc2n1` gave a pEC50 [1] of 6.80.
Work on `CN1C(=O)[C@@]23C[C@]4([C@]56C[C@@]78SS[C@@](CO)(C(=O)N7[C@H]5Nc5ccccc56)N(C)C8=O)c5ccccc5N[C@@H]4N2C(=O)[C@]1(CO)SS3` [CHAETOCIN] yielded a pIC50 [2] of 6.22.
